# According to patent US20130295669A1, “METHOD FOR CONTROLLING BINDING OF CELLS TO A SUBSTRATE” (LONZA COLOGNE GMBH, priority 2010, published 2013):
# Experiments:
# [1] = system: human Embryonic Stem Cells (hESCs); assay: Post-split attachment of hESCs on Matrigel-coated dishes in X-VIVO medium; type: cell-based
# Procedure: The cells were cultured in defined X-VIVO medium containing no serum or animal-derived components on culture dishes coated with Matrigel®. A: No treatment with inhibitor (control), B: Transient treatment with 10 μM Blebbistatin (left micrograph: 4-fold magnification, right micrograph: 10-fold magnification), C: Culture 1 day after withdrawal of Blebbistatin. The post-split attachment of hESCs in X-VIVO has been low (A: 5-15%). When the culture was split (EDTA passage), the medium was supplemented with 10 μM of Blebbistatin. This increased the attachment of hESCs dramatically (B: 80-95%) compared to the post-split attachment of Blebbistatin-free hESC culture in X-VIVO. In fact, even the individualized hESCs attached very well. The media of the culture was replaced after 24 h with Blebbistatin-free X-VIVO to see how the cells stay attached and proliferate without Blebbistatin.
# [2] = system: mesenchymal stem cells from bone marrow (BM-MSC); assay: BM-MSC attachment and proliferation on repellent Teflon foil; type: cell-based; conditions: 10 μM
# Procedure: MSCs were cultured with 10 μM Bb for 4 days on repellent Teflon® foil and the cells attached to the foil were counted on day 4. Bars represent the number of cells per well. Control cultures: BM-MSCs in DMSO or PBS without inhibitor. […] Thus, BM-MSCs attach and proliferate on Teflon® foil.
# MSCs were cultured with 10 μM Bb on repellent Teflon® foil until confluency was reached, the cells attached to the foil were counted on day 6 after cell seeding. Bars represent the number of cells per well. Control cultures: BM-MSCs in DMSO or PBS without inhibitor.
# [3] = system: human pluripotent stem cells; conditions: clonal density and suspension conditions; cited from earlier work
# [4] = system: mesenchymal stem cells from bone marrow (BM-MSCs); assay: Cell aggregation of BM-MSCs in suspension (deep-well) culture; type: cell-based; conditions: for cell clustering: suspension deep-well
# Procedure: (§1) Cell aggregation (A), cell survival (B) and apoptosis (C) were assayed in presence or absence of different Blebbistatin concentrations up to seven days. ROCK inhibitor (Y-27532) was used as a positive control. Cells were added to deep-wells not supporting adherent growth. Different concentrations of Blebbistatin and Y-27632 were tested in suspension (deep-well, 130 RPM) and adhesion (six-well) culture on BM-MSCs (media containing 10% FBS).
# (§2) B: Live cells were quantified by FACS using dye-exclusion assay (propidium iodide). […] The survival-enhancing effect of Blebbistatin appeared concentration dependent peaking at 10 μM and decreasing at both higher and lower concentrations of Blebbistatin. C: Apoptotic cells were quantified by FACS using Annexin V-assay (propidium iodide).
# [5] = system: mesenchymal stem cells from bone marrow (BM-MSC); assay: Dislocation of BM-MSCs with Trypsin/EDTA after pretreatment, and reseeding; type: cell-based; conditions: for effect against cell dislocation and clumping: 3 min Trypsin/EDTA; for cell proliferation (yield and viability) after reseeding: pretreatment before dislocation, 7 days in drug-free medium, 5000 cells/cm^2
# Procedure: Subconfluent BM-MSCs were subjected to 4 h pretreatment (10 μM Blebbistatin or 10 μM Y-27632 vs control) and subsequent incubation for 3 min. with Trypsin/EDTA at 37° C. Cell counts were determined after dislocation of the cells from the surface of tissue culture flasks without specific coating (A). […] Dislocated cells are devoid of aggregates in drug-treated condition. […] Cells were reseeded (all conditions at same density: 5000 cells/cm^2) and cultured for additional 7 days in drug-free medium. After 7 days cell counts (B) and viability (C) were determined. […] An increase in cell proliferation (yield and viability) by Blebbistatin and less for Y-27632 treatment before dislocation in the subsequent drug-free passage (day 7) was also observed.
# [6] = system: stem cells from cord blood (CB-USSCs); assay: CB-USSCs on PTFE vessel material; type: cell-based; conditions: 10 μM, 3 days on PTFE-vessel material
# Procedure: USSCs were cultured with 10 μM Bb for 3 days on repellent PTFE-vessel material compared to control cultures.
# [7] = system: BM-MSC cultures; assay: Cell cycle profiles (G1/G0 and G2) by propidium iodide FACS with continuous BrdU incorporation; type: cell-based; conditions: suspension/shaking culture in deep-wells, up to 3 days
# From the text: (§3) BM-MSC cultures were allowed to incorporate BrdU continuously and were sampled at different points of time (up to 3 days). Most cells are in G1/G0 phase (very dense culture), but there are also some G2-cells present. Absence of >4N cells (no multinucleated cells detected).
# as §3, with “also” for “also some”, “detected). During continuous treatment in adherent T-flasks culture (G2/M) slight slowing down of the cell cycle was observed.” for “detected).”
# [8] = system: mesenchymal stem cells from bone marrow (BM-MSCs); assay: Apoptosis by Annexin V staining and FACS; type: cell-based
# Procedure: as §1, §2
# [9] = system: mesenchymal stem cells from bone marrow (BM-MSCs); type: cell-based
# Procedure: as §1, with “FBS). […] B: Live cells were quantified by FACS using dye-exclusion assay (propidium iodide). […] The survival-enhancing effect of Blebbistatin appeared concentration dependent peaking at 10 μM and decreasing at both higher and lower concentrations of Blebbistatin. C: Apoptotic cells were quantified by FACS using Annexin V-assay (propidium iodide).” for “FBS).”
# [10] = system: BM-MSCs; assay: Attachment of BM-MSCs to hydrophobic side of Lumox-biofoil bag; type: cell-based; conditions: 10 μM, 48 h treatment
# Procedure: Colony and attached cells observed after 48 h treatment with <0.1% DMSO are shown. No significant attachment of cells could be observed.
# Colony and attached cells observed after 48 h treatment with 10 μM Blebbistatin are shown. […] Thus, if compared to FIG. 6 (control), treatment with Blebbistatin results in an increased affinity of BM-MSCs to this surface.
# [11] = system: stem cells from cord blood (CB-USSC); assay: CB-USSC attachment and proliferation on repellent Teflon foil; type: cell-based; conditions: 10 μM
# Procedure: USSCs were cultured with 10 μM Bb for 4 days on repellent Teflon® foil and the cells attached to the foil were counted on day 4. Bars represent the number of cells per well. Control cultures: CB-USSCs in DMSO or PBS without inhibitor. […] Thus, CB-USSCs attach and proliferate on Teflon® foil.
# USSCs were cultured with 10 μM Bb on repellent Teflon® foil until confluency was reached, the cells attached to the foil were counted on day 6 after cell seeding. Bars represent the number of cells per well. Control cultures: CB-USSCs in DMSO or PBS without inhibitor.
# USSCs were cultured with 10 μM Bb on repellent Teflon® foil dish and counted on day 4 after cell seeding. Bars represent the number of cells per well. Control cultures: CB-USSCs in DMSO or PBS without inhibitor. […] USSC attachment and proliferation on Teflon® foil in serum-reduced (EGM2) media is enhanced by myosin inhibition.
# USSCs were cultured with 10 μM Bb on repellent Teflon® foil dish and counted on day 4 after cell seeding. Bars represent the number of cells per well. Control cultures: CB-USSCs in DMSO or PBS without inhibitor.
# [12] = system: human embryonal stem cells (hEST); assay: Cryopreservation recovery of human embryonal stem cells; type: cell-based
# From the text: Usually only cell clusters can be cryopreserved, but not single ES cells.
# Moreover, adding Blebbistatin before freezing is beneficial for cryopreserving single hESCs.
# [13] = system: mesenchymal stem cells from bone marrow (BM-MSC); assay: BM-MSCs seeded on microcarriers for suspension culture; type: cell-based
# Procedure: BM-MSCs were seeded on microcarriers for suspension culture in presence or absence of 10 μM Blebbistatin and allowed to proliferate for 6 days. After 24 h incubation without agitation the culture was sampled to determine cell count, Glucose consumption and cell seeding. After 5 additional days of incubation with agitation Glucose consumption (A), Lactate production (B), cell count (C) and cell seeding on carriers (DAPI-stain of cells on carrier, FIG. 11) were determined again. […] Accordingly, Blebbistatin has a protective effect on the cells resulting in enhanced proliferation after 6 days growth on microcarriers.
# [14] = deep well culture, up to seven days, overall statement
smiles,measurement,setting,value
Cc1ccc2c(c1)C(=O)C1(O)CCN(c3ccccc3)C1=N2 (stereo not drawn) [Blebbistatin],post-split attachment of hESCs,"[1]; 10 μM, EDTA passage, X-VIVO medium, Matrigel",80-95%
same,attachment and proliferation after withdrawal of Blebbistatin,"[1]; medium replaced after 24 h, 1 day after withdrawal",no significant changes could be observed
same,cell yield (cells attached to foil per well),[2]; day 4,significant increase in cell yield
same,confluency on Teflon foil,[2]; day 6,do not form a completely confluent layer
same,cell yield (cells attached to foil per well),[2]; day 6 after cell seeding,No differences in cell yield
same,survival rate of human pluripotent stem cells,[3],increases the survival rate
same,cell clustering,[4]; 10 μM,prevents cell clustering
same,cell aggregation,[4]; [14],prevents or at least greatly reduces cell aggregation
same,cell clustering,[4]; less than 10 μM,formed a single aggregate
same,effect against cell dislocation and clumping,"[5]; 10 μM, 4 h pretreatment",protective effects against cell dislocation and clumping
same,cell counts dislocated from tissue culture flasks,"[5]; 10 μM, 4 h pretreatment, 3 min Trypsin/EDTA at 37° C.",Fewer cells are dislocated
same,cell proliferation (yield and viability) after reseeding,[5],enhanced proliferation and viability
same,cell spreading and aggregate formation,[6],Markedly enhanced cell spreading but no aggregate formation
same,effect on cell cycle,[7],no significant effect
same,concentration of greatest anti-apoptotic effect,[8],10 µM
same,apoptotic cells (Annexin V-assay),"[8]; 10 μM, versus DMSO, PBS controls",protected against apoptosis
same,anti-apoptotic effect,[8]; below 5 μM,merely a limited effect
same,apoptosis,[8]; [14],decreases apoptosis
same,cell death in suspension culture (AnnexinV staining),[8]; suspension/shaking conditions,eliminates cell death in suspension culture
same,anti-apoptotic effect relative to Y-27632,[8]; various inhibitor concentrations,comparable or stronger than that of Y-27632
same,optimum concentration for eliminating cell death,[9],10 µM
same,cell survival,[9]; [14],enables cell survival
same,"cell death rates (propidium iodide, FACS)","[9]; especially at 10-50 μM, adhesive/static or suspension/shaking",significantly eliminates cell death
same,concentration at which survival-enhancing effect peaks,"[9]; suspension, decreasing at higher and lower concentrations",10 µM
same,cells attached to hydrophobic surface,[10],A significant number of cells is attached
same,cell yield (cells attached to foil per well),[11]; day 4,highly significant increase in cell yield
same,proliferation (cells per well),"[11]; day 4, low serum EGM2+Dex-media (3% serum)",significantly enhanced proliferation
same,cell yield (cells per well),"[11]; day 4, serum-free MSCGM-CD medium",No apparent increase in cell yield
same,confluency on Teflon foil,[11]; day 6,form confluent layers
same,cell yield (cells attached to foil per well),[11]; day 6 after cell seeding,significant increase in cell yield
same,cryopreservation recovery of single hESCs,[12],increases the cryopreservation recovery of single hESCs to the comparable level of the recovery of hESC clusters
same,effect of adding before freezing on cryopreserving single hESCs,[12]; added before freezing,beneficial
same,cell seeding on microcarriers,"[13]; 10 μM, after 24 h without agitation",markedly increased
same,Glucose consumption,"[13]; 10 μM, after 6 days",no effect
same,Lactate production,"[13]; 10 μM, after 6 days",no effect
same,cell number,"[13]; 10 μM, after 6 days on microcarriers",significantly increased
same,cells adhering to microcarriers (DAPI-stain micrographs),[13]; after 6 days of incubation,much more cells adhere to the microcarriers
C[C@@H](N)[C@H]1CC[C@H](C(=O)Nc2ccncc2)CC1 [Y-27632],effect against cell dislocation and clumping,"[5]; 10 μM, 4 h pretreatment",protective effects against cell dislocation and clumping
same,cell proliferation (yield and viability) after reseeding,[5],less
